Experimental findings from patent US10208019B2, “GLP-1 receptor agonists and uses thereof” (Pfizer Inc., priority 2016, dated 2019) are described below.

Assay [1] has as its target human GLP-1R (Homo sapiens (Human), UniProt P43220, L260F). Kind of assay: CHO GLP-1R Clone C6—Assay 2: HTRF cAMP cell-based functional agonist assay (low GLP-1R density). The conditions noted are these: for EC50: CHO GLP-1R Clone C6, cAMP HTRF, geometric mean; for Emax: read-out: Assay 2 Emax (%). On the technique in general: In TR-FRET formats the signal depends on donor and acceptor labels being close together.
Experimental: GLP-1R-mediated agonist activity was determined with a cell-based functional assay utilizing an HTRF (Homogeneous Time-Resolved Fluorescence) cAMP detection kit (cAMP HI Range Assay Kit; Cis Bio cat #62AM6PEJ) that measures cAMP levels in the cell. The method is a competitive immunoassay between native cAMP produced by the cells and exogenous cAMP labeled with the dye d2. The tracer binding is visualized by a mAb anti-cAMP labeled with Cryptate. The specific signal (i.e. energy transfer) is inversely proportional to the concentration of cAMP in either a standard or an experimental sample.
The human GLP-1R coding sequence (NCBI Reference Sequence NP_002053.3, including naturally-occurring variant Leu260Phe) was subcloned into pcDNA5-FRT-TO and a clonal CHO cell line stably expressing a low receptor density was isolated using the Flp-In™ T-Rex™ System, as described by the manufacturer (ThermoFisher).
Cells were removed from cryopreservation, re-suspended in 40 mL of Dulbecco's Phosphate Buffered Saline (DPBS-Lonza Cat #17-512Q) and centrifuged at 800×g for 5 min at 22° C. The DPBS was aspirated, and the cell pellet was re-suspended in 10 mL of complete growth medium (DMEM:F12 1:1 Mixture with HEPES, L-Gln, 500 mL (DMEM/F12 Lonza Cat #12-719F), 10% heat inactivated fetal bovine serum (Gibco Cat #16140-071), 5 mL of 100× Pen-Strep (Gibco Cat #15140-122), 5 mL of 100× L-Glutamine (Gibco Cat #25030-081), 700 μg/mL Hygromycin (Invitrogen Cat #10687010) and 15 μg/mL Blasticidin (Gibco Cat #R21001). A 1 mL sample of the cell suspension in growth media was counted on a Becton Dickinson ViCell to determine cell viability and cell count per mL. The remaining cell suspension was then adjusted with growth media to deliver 1600 viable cells per well using a Matrix Combi Multidrop reagent dispenser, and the cells were dispensed into a white 384 well tissue culture treated assay plate (Corning 3570). The assay plate was then incubated for 48 h at 37° C. in a humidified environment (95% O2, 5% CO2)
Varying concentrations of each compound to be tested (in DMSO) were diluted in assay buffer [HBSS with Calcium/Magnesium (Lonza/BioWhittaker cat #10-527F)/0.1% BSA (Sigma Aldrich cat #A7409-1L)/20 mM HEPES (Lonza/BioWhittaker cat #17-737E)] containing 100 μM 3-isobutyl-1-methylxanthin (IBMX; Sigma cat #15879). The final DMSO concentration in the compound/assay buffer mixture is 1%.
After 48 h, the growth media was removed from the assay plate wells, and the cells were treated with 20 μL of the serially diluted compound in assay buffer for 30 min at 37° C. in a humidified environment (95% O2, 5% CO2). Following the 30 min incubation, 10 μL of labeled d2 cAMP and 10 μL of anti-cAMP antibody (both diluted 1:20 in cell lysis buffer; as described in the manufacturer's assay protocol) were added to each well of the assay plate. The plates were then incubated at room temperature and after 60 minutes, changes in the HTRF signal were read with an Envision 2104 multi-label plate reader using excitation of 330 nm and emissions of 615 and 665 nm. Raw data were converted to nM cAMP by interpolation from a cAMP standard curve (as described in the manufacturer's assay protocol) and the percent effect was determined relative to a saturating concentration of the full agonist GLP-1 (1 μM) included on each plate. EC50 determinations were made from agonist dose response curves analyzed with a curve fitting program using a 4-parameter logistic dose response equation.

Assay [2] concerns the target human GLP-1R (Homo sapiens, UniProt P43220, G168S). The experiment in a line: CHO GLP-1R Clone H6—Assay 1: HTRF cAMP cell-based functional agonist assay (high GLP-1R density). The following applies: for EC50: CHO GLP-1R Clone H6, cAMP HTRF, geometric mean; for Emax: read-out: Assay 1 Emax (%), CHO GLP-1R Clone H6.
Experimental: GLP-1R-mediated agonist activity was determined with a cell-based functional assay utilizing an HTRF (Homogeneous Time-Resolved Fluorescence) cAMP detection kit (cAMP HI Range Assay Kit; CisBio cat #62AM6PEJ) that measures cAMP levels in the cell. The method is a competitive immunoassay between native cAMP produced by the cells and exogenous cAMP labeled with the dye d2. The tracer binding is visualized by a mAb anti-cAMP labeled with Cryptate. The specific signal (i.e. energy transfer) is inversely proportional to the concentration of cAMP in either standard or experimental sample.
The human GLP-1R coding sequence (NCBI Reference Sequence NP_002053.3, including naturally-occurring variant Gly168Ser) was subcloned into pcDNA3 (Invitrogen) and a cell line stably expressing the receptor was isolated (designated Clone H6).
Cells were removed from cryopreservation, re-suspended in 40 mL of Dulbecco's Phosphate Buffered Saline (DPBS-Lonza Cat #17-512Q) and centrifuged at 800×g for 5 min at 22° C. The cell pellet was then re-suspended in 10 mL of growth medium [DMEM/F12 1:1 Mixture with HEPES, L-Gln, 500 mL (DMEM/F12 Lonza Cat #12-719F), 10% heat inactivated fetal bovine serum (Gibco Cat #16140-071), 5 mL of 100× Pen-Strep (Gibco Cat #15140-122), 5 mL of 100× L-Glutamine (Gibco Cat #25030-081) and 500 μg/mL Geneticin (G418) (Invitrogen #10131035)]. A 1 mL sample of the cell suspension in growth media was counted on a Becton Dickinson ViCell to determine cell viability and cell count per mL. The remaining cell suspension was then adjusted with growth media to deliver 2000 viable cells per well using a Matrix Combi Multidrop reagent dispenser, and the cells were dispensed into a white 384 well tissue culture treated assay plate (Corning 3570). The assay plate was then incubated for 48 hours at 37° C. in a humidified environment in 5% carbon dioxide.
Varying concentrations of each compound to be tested (in DMSO) were diluted in assay buffer (HBSS with Calcium/Magnesium (Lonza/BioWhittaker cat #10-527F)/0.1% BSA (Sigma Aldrich cat #A7409-1L)/20 mM HEPES (Lonza/BioWhiftaker cat #17-737E) containing 100 μM 3-isobutyl-1-methylxanthin (IBMX; Sigma cat #15879). The final DMSO concentration is 1%.
After 48 hours, the growth media was removed from the assay plate wells, and the cells were treated with 20 μL of the serially diluted compound in assay buffer for 30 minutes at 37° C. in a humidified environment in 5% carbon dioxide. Following the 30 minute incubation, 10 μL of labeled d2 cAMP and 10 μL of anti-cAMP antibody (both diluted 1:20 in cell lysis buffer; as described in the manufacturer's assay protocol) were added to each well of the assay plate. The plates were then incubated at room temperature and after 60 minutes, changes in the HTRF signal were read with an Envision 2104 multi-label plate reader using excitation of 330 nm and emissions of 615 and 665 nm. Raw data were converted to nM cAMP by interpolation from a cAMP standard curve (as described in the manufacturer's assay protocol) and the percent effect was determined relative to a saturating concentration of the full agonist GLP-17-36 (1 μM) included on each plate. EC50 determinations were made from agonist dose-response curves analyzed with a curve fitting program using a 4-parameter logistic dose response equation.
The mark [3] stands for this setting: CHO GLP-1R Clone C6, relative to saturating concentration of full agonist GLP-1 (1 μM), arithmetic mean.
Where [4] appears, read: relative to saturating concentration of full agonist GLP-1 (1 μM), arithmetic mean.

Like-named read-outs stand apart in the source and are kept apart here.

Sequence of human GLP-1R (Homo sapiens, UniProt P43220, G168S) (P43220 24-463 G168S limits assumed): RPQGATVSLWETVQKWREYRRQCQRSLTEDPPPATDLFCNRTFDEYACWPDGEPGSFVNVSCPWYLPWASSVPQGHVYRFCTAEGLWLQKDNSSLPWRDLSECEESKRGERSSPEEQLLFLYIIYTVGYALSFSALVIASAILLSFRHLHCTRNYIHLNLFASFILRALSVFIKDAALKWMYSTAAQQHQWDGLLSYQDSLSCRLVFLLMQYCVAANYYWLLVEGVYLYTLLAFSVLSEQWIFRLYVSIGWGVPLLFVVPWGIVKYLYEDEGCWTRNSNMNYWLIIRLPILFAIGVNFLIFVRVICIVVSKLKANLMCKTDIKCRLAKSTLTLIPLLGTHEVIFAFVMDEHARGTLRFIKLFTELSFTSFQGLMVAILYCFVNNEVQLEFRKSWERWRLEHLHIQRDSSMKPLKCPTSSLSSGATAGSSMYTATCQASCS
Sequence of human GLP-1R (Homo sapiens (Human), UniProt P43220, L260F) (P43220 24-463 L260F): as the sequence (P43220 24-463 G168S limits assumed) above, with S145G, L237F counted along it

Consider `O=C(O)c1ccc2nc(CN3CCC(c4cccc(OCc5ccc(Cl)cc5F)n4)CC3)n(CCn3cccn3)c2c1` [Example 11A-28, 2-[(4-{6-[(4-chloro-2-fluorobenzyl)oxy]pyridin-2-yl}piperidin-1-yl)methyl]-1-[2-(1H-pyrazol-1-yl)ethyl]-1H-benzimidazole-6-carboxylic acid], for which the concentration for a half-maximal effect (EC50) (in general, the concentration needed to bring the measured effect to its halfway point) amounted to 1200 nM at human GLP-1R [1] and 54 nM at human GLP-1R [2] (read-out: Assay 1 EC50). Further, the Emax (usually the maximal effect, on the per cent scale that the assay sets) came out at 82% at human GLP-1R [1] (setting [3]) and 77% at human GLP-1R [2] (setting [4]).

Consider `Cc1noc(CCn2c(CN3CCC(c4cccc(OCc5ccc(Cl)cc5F)n4)CC3)nc3ccc(C(=O)O)cc32)n1` [Example 11A-29, 2-[(4-{6-[(4-chloro-2-fluorobenzyl)oxy]pyridin-2-yl}piperidin-1-yl)methyl]-1-[2-(3-methyl-1,2,4-oxadiazol-5-yl)ethyl]-1H-benzim idazole-6-carboxylic acid], for which the EC50 came out at 1700 nM on human GLP-1R [1] and 55 nM on human GLP-1R [2] (read-out: Assay 1 EC50). Besides, the Emax on human GLP-1R [1] (setting [3]) was 99%; on human GLP-1R [2] (setting [4]) it was 71%.

Take `Cc1ccn(CCn2c(CN3CCC(c4cccc(OCc5ccc(Cl)cc5F)n4)CC3)nc3ccc(C(=O)O)cc32)n1` [Example 11A-31, 2-[(4-{6-[(4-chloro-2-fluorobenzyl)oxy]pyridin-2-yl}piperidin-1-yl)methyl]-1-[2-(3-methyl-1H-pyrazol-1-yl)ethyl]-1H-benzimidazole-6-carboxylic acid]: the EC50 worked out at 1500 nM on human GLP-1R [1] and 72 nM at human GLP-1R [2] (read-out: Assay 1 EC50). In addition, the Emax at human GLP-1R [1] (setting [3]) came out at 81%; at human GLP-1R [2] (setting [4]) it was 76%.

Take `Cn1ncnc1Cn1c(CN2CCC(c3cccc(OCc4ccc(Cl)cc4F)n3)CC2)nc2ccc(C(=O)O)cc21` [Example 11A-33, 2-[(4-{6-[(4-chloro-2-fluorobenzyl)oxy]pyridin-2-yl}piperidin-1-yl)methyl]-1-[(1-methyl-1H-1,2,4-triazol-5yl)methyl]-1H-benzimidazole-6-carboxylic acid]: the EC50 at human GLP-1R [1] was determined as 1400 nM; at human GLP-1R [2] (read-out: Assay 1 EC50), 96 nM. Also, the Emax at human GLP-1R [1] (setting [3]) is 94%; at human GLP-1R [2] (setting [4]), 86%.

In the case of `CN1CCC[C@@H]1Cn1c(CN2CCC(c3cccc(OCc4ccc(Cl)cc4F)n3)CC2)nc2ccc(C(=O)O)cc21` [Example 11A-34, 2-[(4-{6-[(4-chloro-2-fluorobenzyl)oxy]pyridin-2-yl}piperidin-1-yl)methyl]-1-{[(2R)-1-methylpyrrolidin-2-yl]methyl}-1H-benzimidazole-6-carboxylic acid], the concentration for a half-maximal effect (EC50) at human GLP-1R [1] is 3500 nM; at human GLP-1R [2] (read-out: Assay 1 EC50) it was 110 nM. The maximum response (Emax) on human GLP-1R [1] (setting [3]) worked out at 95%; on human GLP-1R [2] (setting [4]) it was 70%.

On to `O=C(O)c1ccc2nc(CN3CCC(c4cccc(OCc5ccc(Cl)cc5F)n4)CC3)n(C[C@H]3CCCO3)c2c1` [Example 11A-68, 2-[(4-{6-[(4-chloro-2-fluorobenzyl)oxy]pyridin-2-yl}piperidin-1-yl)methyl]-1-[(2R)-tetrahydrofuran-2-ylmethyl]-1H-benzimidazole-6-carboxylic acid], for which the concentration giving a half-maximal response (EC50) on human GLP-1R [1] is 2000 nM; on human GLP-1R [2] (read-out: Assay 1 EC50), 63 nM. The Emax at human GLP-1R [1] (setting [3]) was found to be 82%; on human GLP-1R [2] (setting [4]), 78%.

On to `O=C(O)c1ccc2nc(CN3CCC(c4cccc(OCc5ccc(Cl)cc5F)n4)CC3)n(Cc3ccon3)c2c1` [Example 11A-69, 2-[(4-{6-[(4-chloro-2-fluorobenzyl)oxy]pyridin-2-yl}piperidin-1-yl)methyl]-1-(1,2-oxazol-3-ylmethyl)-1H-benzimidazole-6-carboxylic acid], for which the EC50 was determined as 21 nM at human GLP-1R [1] and 5.3 nM at human GLP-1R [2] (read-out: Assay 1 EC50). The results for the Emax on human GLP-1R [1] (setting [3]) and on human GLP-1R [2] (setting [4]) were 84% and 76%, respectively.

Regarding `Cn1cncc1Cn1c(CN2CCC(c3cccc(OCc4ccc(Cl)cc4F)n3)CC2)nc2ccc(C(=O)O)cc21` [Example 11A-70, 2-[(4-{6-[(4-chloro-2-fluorobenzyl)oxy]pyridin-2-yl}piperidin-1-yl)methyl]-1-[(1-methyl-1H-imidazol-5-yl)methyl]-1H-benzimidazole-6-carboxylic acid], the concentration giving a half-maximal response (EC50) at human GLP-1R [1] turned out to be 10 nM; at human GLP-1R [2] (read-out: Assay 1 EC50) it was 0.7 nM. Moreover, the Emax amounted to 89% at human GLP-1R [1] (setting [3]) and 86% at human GLP-1R [2] (setting [4]).

In the case of `Cn1cnnc1Cn1c(CN2CCC(c3cccc(OCc4ccc(Cl)cc4F)n3)CC2)nc2ccc(C(=O)O)cc21` [Example 11A-71, 2-[(4-{6-[(4-chloro-2-fluorobenzyl)oxy]pyridin-2-yl}piperidin-1-yl)methyl]-1-[(4-methyl-4H-1,2,4-triazol-3-yl)methyl]-1H-benzimidazole-6-carboxylic acid], the EC50 on human GLP-1R [1] is 570 nM; on human GLP-1R [2] (read-out: Assay 1 EC50) it was 30 nM. For the same compound, the Emax at human GLP-1R [1] (setting [3]) stood at 93%; at human GLP-1R [2] (setting [4]), 73%.

Consider `Cn1nncc1Cn1c(CN2CCC(c3cccc(OCc4ccc(Cl)cc4F)n3)CC2)nc2ccc(C(=O)O)cc21` [Example 11A-72, 2-[(4-{6-[(4-chloro-2-fluorobenzyl)oxy]pyridin-2-yl}piperidin-1-yl)methyl]-1-[(1-methyl-1H-1,2,3-triazol-5-yl]methyl]-1H-benzimidazole-6-carboxylic acid], for which the results for the 50% effective concentration (EC50) on human GLP-1R [1] and on human GLP-1R [2] (read-out: Assay 1 EC50) were 41 nM and 5 nM, respectively. The figures for the Emax at human GLP-1R [1] (setting [3]) and at human GLP-1R [2] (setting [4]) were 77% and 82%, respectively.

On to `O=C(O)c1ccc2nc(CN3CCC(c4cccc(OCc5ccc(Cl)cc5F)n4)CC3)n(CCC(F)(F)F)c2c1` [Example 11A-73, 2-[(4-{6-[(4-chloro-2-fluorobenzyl)oxy]pyridin-2-yl}piperidin-1-yl)methyl]-1-(3,3,3-trifluoropropyl)-1H-benzimidazole-6-carboxylic acid], for which the figures for the half-maximal effective concentration (EC50) on human GLP-1R [1] and at human GLP-1R [2] (read-out: Assay 1 EC50) were 5300 nM and 150 nM, respectively. Besides, the figures for the maximal response (Emax) on human GLP-1R [1] (setting [3]) and at human GLP-1R [2] (setting [4]) were 80% and 68%, respectively.

Take `CC[C@H]1CN(c2cccc(OCc3ccc(Cl)cc3F)n2)CCN1Cc1nc2ccc(C(=O)O)cc2n1CCOC` [Example 12A-07, 2-{[(2S)-4-{6-[(4-chloro-2-fluorobenzyl)oxy]pyridin-2-yl}-2-ethylpiperazin-1-yl]methyl}-1-(2-methoxyethyl)-1H-benzimidazole-6-carboxylic acid]: the values for the 50% effective concentration (EC50) at human GLP-1R [1] and at human GLP-1R [2] (read-out: Assay 1 EC50) were 1200 nM and 37 nM, respectively. The Emax on human GLP-1R [1] (setting [3]) turned out to be 83%; at human GLP-1R [2] (setting [4]) it was 69%.

As for `COCCn1c(CN2CCN(c3cccc(OCc4ccc(C#N)cc4)n3)C[C@@H]2C)nc2ccc(C(=O)O)cc21` [Example 12A-08, 2-{[(2S)-4-{6-[(4-cyanobenzyl)oxy]pyridin-2-yl}-2-methylpiperazin-1-yl]methyl}-1-(2-methoxyethyl)-1H-benzimidazole-6-carboxylic acid], the results for the concentration for a half-maximal effect (EC50) on human GLP-1R [1] and at human GLP-1R [2] (read-out: Assay 1 EC50) were 150 nM and 6.1 nM, respectively. The maximal response (Emax) came to 97% at human GLP-1R [1] (setting [3]) and 89% at human GLP-1R [2] (setting [4]).

`COCCn1c(CN2CCN(c3cccc(OCc4ccc(Cl)cc4F)n3)C[C@@H]2CO)nc2ccc(C(=O)O)cc21` [Example 12A-09]: the EC50 at human GLP-1R [1] came to 540 nM; at human GLP-1R [2] (read-out: Assay 1 EC50) it was 21 nM. Moreover, the “Assay 2 Emax (%)” value on human GLP-1R [1] (setting [3]) amounted to 80%. Besides, at human GLP-1R [2] (CHO GLP-1R Clone H6, relative to saturating concentration of full agonist GLP-1 (1 μM), arithmetic mean), the “Assay 1 Emax (%)” value is on record as 79%.

Turning to `COCCn1c(CN2CCN(c3cccc(OCc4ccc(Cl)cc4F)n3)C[C@@H]2C)nc2ccc(C(=O)O)cc21` [Example 12A-10, 2-{[(2S)-4-{6-[(4-chloro-2-fluorobenzyl)oxy]pyridin-2-yl}-2-methylpiperazin-1-yl]methyl]-1-(2-methoxyethyl)-1H-benzimidazole-6-carboxylic acid], the results for the 50% effective concentration (EC50) on human GLP-1R [1] and at human GLP-1R [2] (read-out: Assay 1 EC50) were 170 nM and 6.9 nM, respectively. In addition, the maximum response (Emax) came out at 96% at human GLP-1R [1] (setting [3]) and 78% at human GLP-1R [2] (setting [4]).

As to `COCCn1c(CN2CCN(c3cccc(OCc4ccc(Cl)cc4F)n3)C[C@H]2C)nc2ccc(C(=O)O)cc21` [Example 12A-11, 2-{[(2R)-4-{6-[(4-chloro-2-fluorobenzyl)oxy]pyridin-2-yl}-2-methylpiperazin-1-yl]methyl}-1-(2-methoxyethyl)-1H-benzimidazole-6-carboxylic acid], the EC50 is 2100 nM at human GLP-1R [1] and 54 nM at human GLP-1R [2] (Assay 1 EC50 (nM)). The maximal response (Emax) on human GLP-1R [1] (setting [3]) was 100%; at human GLP-1R [2] (setting [4]) it was 81%.
